Tested on: S. aureus
Experiment: modified MIC assay, bactericidal activity of eluents from CPP mix cements
Type: cell-based
Conditions: EM eluted from cement or gel
Procedure: A modified minimum inhibitory concentration (MIC) assay was developed to measure the bactericidal activity of erythromycin eluted from the CPP mix cements. Briefly, a Mueller-Hinton broth inoculated with S. aureus […] was cultured at about 37° C. until an absorbance reading of about 0.08 to about 0.1 was attained at 625 nm, corresponding to roughly 1-2×10^8 CFU/ml. Then about 200 μl of eluents from CPP mix cements collected at various time points was added into about 800 μL of the bacterial broth and incubation continued at about 37° C. for about 6 hours, followed by OD measurement at about 625 nm. The MIC was determined by the lowest concentration that inhibited the growth of bacterium as characterized by a lack of turbidity and lower OD readings. Bacterial culture in Mueller Hinton broth without erythromycin was included as a positive control. Bactericidal activity assays were conducted in duplicate for both the blank and testing samples.

CC[C@H]1OC(=O)[C@H](C)[C@@H](O[C@H]2C[C@@](C)(OC)[C@@H](O)[C@H](C)O2)[C@H](C)[C@@H](O[C@@H]2O[C@H](C)C[C@H](N(C)C)[C@H]2O)[C@](C)(O)C[C@@H](C)C(=O)[C@H](C)[C@@H](O)[C@]1(C)O [EM, erythromycin]
bactericidal activity / stability of eluted EM: stable and active

Reference: patent US10632227B2, “Method of making injectable cements” (Wayne State University, priority 2015, dated 2020)
